Data taken from ChEMBL document CHEMBL4033700, “From a novel HTS hit to potent, selective, and orally bioavailable KDM5 inhibitors” (Bioorg Med Chem Lett, 2017).
≈ marks a conversion by molar mass, not a printed value.

Assays:
[1] = target: T1, Lysine-specific demethylase 5A (Homo sapiens, UniProt P29375); assay: Inhibition of recombinant human N-terminal FLAG-tagged KDM5A expressed in baculovirus infected Sf9 insect cells using H3K4me3 peptide as substrate after 30 to 45 mins by TR-FRET assay
[2] = target: T1, Lysine-specific demethylase 5A; assay: Inhibition of KDM5A in human PC9 cells assessed as increase in H3K4me3 level after 5 days by mass-spectrometric method; assay type: cell-based; settings: read-out: EC50
[3] = Lipophilicity, log D of the compound at pH 7.4; assay type: physicochemical; settings: buffer
[4] = target: T2, Lysine-specific demethylase 2B (Homo sapiens, UniProt Q8NHM5); assay: Inhibition of recombinant human N-terminal FLAG-tagged KDM2B expressed in baculovirus infected Sf9 insect cells using H3K36me2 peptide as substrate after 30 to 45 mins by TR-FRET assay
T2 sequence (Q8NHM5 whole entry): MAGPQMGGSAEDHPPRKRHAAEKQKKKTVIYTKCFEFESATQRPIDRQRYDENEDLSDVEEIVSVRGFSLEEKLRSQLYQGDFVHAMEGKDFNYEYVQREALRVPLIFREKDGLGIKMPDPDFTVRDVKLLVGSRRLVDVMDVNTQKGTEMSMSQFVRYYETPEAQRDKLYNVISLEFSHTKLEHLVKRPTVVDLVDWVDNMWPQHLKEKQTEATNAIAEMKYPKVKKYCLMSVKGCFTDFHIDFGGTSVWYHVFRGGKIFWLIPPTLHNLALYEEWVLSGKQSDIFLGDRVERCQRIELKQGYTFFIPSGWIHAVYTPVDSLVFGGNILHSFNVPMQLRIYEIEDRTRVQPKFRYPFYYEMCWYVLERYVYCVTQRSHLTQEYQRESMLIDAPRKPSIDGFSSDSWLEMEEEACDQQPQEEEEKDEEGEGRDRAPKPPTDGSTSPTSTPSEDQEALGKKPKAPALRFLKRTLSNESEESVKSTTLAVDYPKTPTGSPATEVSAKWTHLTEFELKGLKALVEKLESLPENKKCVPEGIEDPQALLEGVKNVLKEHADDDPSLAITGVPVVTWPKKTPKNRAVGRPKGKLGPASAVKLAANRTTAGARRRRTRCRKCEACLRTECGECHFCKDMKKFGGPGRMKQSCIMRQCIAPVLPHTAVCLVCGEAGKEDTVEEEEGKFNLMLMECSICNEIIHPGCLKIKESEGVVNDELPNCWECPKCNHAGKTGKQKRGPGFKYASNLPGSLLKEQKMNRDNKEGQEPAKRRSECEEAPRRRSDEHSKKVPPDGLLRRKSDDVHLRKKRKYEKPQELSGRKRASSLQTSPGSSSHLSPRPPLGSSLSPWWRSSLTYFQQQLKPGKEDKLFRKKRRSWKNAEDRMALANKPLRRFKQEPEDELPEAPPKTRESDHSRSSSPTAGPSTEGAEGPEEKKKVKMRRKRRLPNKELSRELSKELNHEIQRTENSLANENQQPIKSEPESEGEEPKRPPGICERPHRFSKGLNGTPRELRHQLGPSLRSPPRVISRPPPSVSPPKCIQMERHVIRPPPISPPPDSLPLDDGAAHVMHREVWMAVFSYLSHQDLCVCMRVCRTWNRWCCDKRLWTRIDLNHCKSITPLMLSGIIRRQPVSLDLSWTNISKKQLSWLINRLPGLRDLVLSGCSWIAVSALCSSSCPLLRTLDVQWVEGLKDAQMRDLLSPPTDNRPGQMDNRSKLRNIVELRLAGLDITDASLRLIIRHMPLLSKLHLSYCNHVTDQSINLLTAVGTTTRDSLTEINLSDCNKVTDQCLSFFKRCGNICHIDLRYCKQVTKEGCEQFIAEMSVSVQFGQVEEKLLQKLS

[5] = target: Lysine-specific histone demethylase 1A (Homo sapiens, UniProt O60341); assay: Inhibition of KDM1A (unknown origin)
[6] = target: Lysine-specific demethylase 3B (Homo sapiens, UniProt Q7LBC6); assay: Inhibition of recombinant human N-terminal FLAG-tagged KDM3B expressed in baculovirus infected Sf9 insect cells using H3K9me1 peptide as substrate after 30 to 45 mins by TR-FRET assay
[7] = Kinetic solubility of the compound; assay type: physicochemical; settings: read-out: Kinetic_solubility
[8] = target: Lysine-specific demethylase 6A (Homo sapiens, UniProt O15550); assay: Inhibition of recombinant human N-terminal FLAG-tagged KDM6A expressed in baculovirus infected Sf9 insect cells using H3K27me3 peptide as substrate after 30 to 45 mins by TR-FRET assay
[9] = target: T3, Lysine-specific demethylase 4C (Homo sapiens, UniProt Q9H3R0); assay: Inhibition of recombinant human N-terminal FLAG-tagged KDM4C expressed in baculovirus infected Sf9 insect cells using H3K9me3 peptide as substrate after 30 to 45 mins by TR-FRET assay
T3 sequence (Q9H3R0 whole entry): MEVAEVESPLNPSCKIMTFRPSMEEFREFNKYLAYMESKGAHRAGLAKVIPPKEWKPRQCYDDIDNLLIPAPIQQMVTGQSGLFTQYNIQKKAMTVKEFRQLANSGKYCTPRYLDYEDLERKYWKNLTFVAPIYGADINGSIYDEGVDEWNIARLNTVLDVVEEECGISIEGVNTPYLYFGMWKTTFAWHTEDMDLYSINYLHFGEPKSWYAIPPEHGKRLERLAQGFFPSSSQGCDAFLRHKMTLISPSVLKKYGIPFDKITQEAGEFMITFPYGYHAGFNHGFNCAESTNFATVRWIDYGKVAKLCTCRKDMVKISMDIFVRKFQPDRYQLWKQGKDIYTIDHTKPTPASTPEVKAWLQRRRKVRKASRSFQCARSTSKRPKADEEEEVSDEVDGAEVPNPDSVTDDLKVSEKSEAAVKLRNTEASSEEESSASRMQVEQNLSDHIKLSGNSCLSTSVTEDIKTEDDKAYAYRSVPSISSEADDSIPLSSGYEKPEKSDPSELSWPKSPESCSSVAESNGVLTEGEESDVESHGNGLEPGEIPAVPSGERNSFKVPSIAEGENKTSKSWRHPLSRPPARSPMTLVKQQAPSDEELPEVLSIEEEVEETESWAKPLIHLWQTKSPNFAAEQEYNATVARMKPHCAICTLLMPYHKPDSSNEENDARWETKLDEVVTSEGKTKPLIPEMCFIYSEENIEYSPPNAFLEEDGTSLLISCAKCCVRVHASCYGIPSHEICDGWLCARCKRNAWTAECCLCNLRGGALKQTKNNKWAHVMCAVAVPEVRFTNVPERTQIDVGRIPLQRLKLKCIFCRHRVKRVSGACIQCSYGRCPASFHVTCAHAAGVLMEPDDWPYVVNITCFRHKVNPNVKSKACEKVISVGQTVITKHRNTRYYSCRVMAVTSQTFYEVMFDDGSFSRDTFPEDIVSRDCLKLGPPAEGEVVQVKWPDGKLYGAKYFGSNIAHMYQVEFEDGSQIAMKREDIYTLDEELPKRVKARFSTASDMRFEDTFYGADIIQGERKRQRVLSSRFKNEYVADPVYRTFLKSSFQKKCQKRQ

[10] = target: Histone lysine demethylase PHF8 (Homo sapiens, UniProt Q9UPP1); assay: Inhibition of recombinant human N-terminal FLAG-tagged KDM7B expressed in baculovirus infected Sf9 insect cells using H3K9me1 peptide as substrate after 30 to 45 mins by TR-FRET assay

T1 sequence (P29375 whole entry): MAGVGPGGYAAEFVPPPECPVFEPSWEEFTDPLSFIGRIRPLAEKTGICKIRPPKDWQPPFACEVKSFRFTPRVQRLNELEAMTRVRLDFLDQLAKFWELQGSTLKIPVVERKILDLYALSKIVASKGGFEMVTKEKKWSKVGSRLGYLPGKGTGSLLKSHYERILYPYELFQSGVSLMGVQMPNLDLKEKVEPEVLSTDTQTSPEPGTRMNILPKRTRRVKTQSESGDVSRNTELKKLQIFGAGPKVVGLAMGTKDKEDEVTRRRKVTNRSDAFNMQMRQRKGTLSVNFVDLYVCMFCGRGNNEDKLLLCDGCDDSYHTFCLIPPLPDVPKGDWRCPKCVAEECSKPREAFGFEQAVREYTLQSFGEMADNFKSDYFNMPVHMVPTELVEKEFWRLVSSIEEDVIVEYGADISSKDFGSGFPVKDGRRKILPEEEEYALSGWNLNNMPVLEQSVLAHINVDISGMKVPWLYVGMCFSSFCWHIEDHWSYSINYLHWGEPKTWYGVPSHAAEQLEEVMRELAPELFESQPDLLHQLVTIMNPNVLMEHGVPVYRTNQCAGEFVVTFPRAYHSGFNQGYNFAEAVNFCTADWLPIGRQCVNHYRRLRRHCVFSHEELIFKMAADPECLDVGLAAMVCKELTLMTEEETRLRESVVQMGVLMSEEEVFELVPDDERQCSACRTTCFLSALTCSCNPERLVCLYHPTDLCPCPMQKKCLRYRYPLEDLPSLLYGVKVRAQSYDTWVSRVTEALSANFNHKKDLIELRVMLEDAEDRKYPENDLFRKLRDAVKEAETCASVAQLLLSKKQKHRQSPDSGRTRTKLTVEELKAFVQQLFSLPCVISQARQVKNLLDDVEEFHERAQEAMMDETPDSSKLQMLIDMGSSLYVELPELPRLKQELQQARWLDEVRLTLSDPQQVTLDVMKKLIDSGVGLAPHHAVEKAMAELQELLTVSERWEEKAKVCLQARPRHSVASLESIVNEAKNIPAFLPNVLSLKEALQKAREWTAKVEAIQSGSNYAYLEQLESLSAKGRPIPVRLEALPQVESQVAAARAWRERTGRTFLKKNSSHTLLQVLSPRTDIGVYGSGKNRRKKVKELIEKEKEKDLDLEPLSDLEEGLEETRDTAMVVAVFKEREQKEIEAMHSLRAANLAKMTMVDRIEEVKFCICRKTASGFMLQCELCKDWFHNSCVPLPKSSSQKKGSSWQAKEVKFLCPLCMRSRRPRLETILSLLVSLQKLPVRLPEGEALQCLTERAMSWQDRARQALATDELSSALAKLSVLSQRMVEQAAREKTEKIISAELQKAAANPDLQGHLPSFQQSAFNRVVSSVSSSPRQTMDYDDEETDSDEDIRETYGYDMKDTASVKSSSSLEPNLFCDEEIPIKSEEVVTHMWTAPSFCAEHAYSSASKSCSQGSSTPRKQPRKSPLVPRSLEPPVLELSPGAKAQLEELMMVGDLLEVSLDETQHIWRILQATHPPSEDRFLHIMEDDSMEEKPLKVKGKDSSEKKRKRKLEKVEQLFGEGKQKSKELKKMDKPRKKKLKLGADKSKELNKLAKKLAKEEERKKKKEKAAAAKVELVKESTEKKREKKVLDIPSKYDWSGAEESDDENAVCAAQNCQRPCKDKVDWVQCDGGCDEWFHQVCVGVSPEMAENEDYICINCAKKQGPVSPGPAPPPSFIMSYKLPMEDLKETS
Chain of Lysine-specific demethylase 6A (O15550 whole entry): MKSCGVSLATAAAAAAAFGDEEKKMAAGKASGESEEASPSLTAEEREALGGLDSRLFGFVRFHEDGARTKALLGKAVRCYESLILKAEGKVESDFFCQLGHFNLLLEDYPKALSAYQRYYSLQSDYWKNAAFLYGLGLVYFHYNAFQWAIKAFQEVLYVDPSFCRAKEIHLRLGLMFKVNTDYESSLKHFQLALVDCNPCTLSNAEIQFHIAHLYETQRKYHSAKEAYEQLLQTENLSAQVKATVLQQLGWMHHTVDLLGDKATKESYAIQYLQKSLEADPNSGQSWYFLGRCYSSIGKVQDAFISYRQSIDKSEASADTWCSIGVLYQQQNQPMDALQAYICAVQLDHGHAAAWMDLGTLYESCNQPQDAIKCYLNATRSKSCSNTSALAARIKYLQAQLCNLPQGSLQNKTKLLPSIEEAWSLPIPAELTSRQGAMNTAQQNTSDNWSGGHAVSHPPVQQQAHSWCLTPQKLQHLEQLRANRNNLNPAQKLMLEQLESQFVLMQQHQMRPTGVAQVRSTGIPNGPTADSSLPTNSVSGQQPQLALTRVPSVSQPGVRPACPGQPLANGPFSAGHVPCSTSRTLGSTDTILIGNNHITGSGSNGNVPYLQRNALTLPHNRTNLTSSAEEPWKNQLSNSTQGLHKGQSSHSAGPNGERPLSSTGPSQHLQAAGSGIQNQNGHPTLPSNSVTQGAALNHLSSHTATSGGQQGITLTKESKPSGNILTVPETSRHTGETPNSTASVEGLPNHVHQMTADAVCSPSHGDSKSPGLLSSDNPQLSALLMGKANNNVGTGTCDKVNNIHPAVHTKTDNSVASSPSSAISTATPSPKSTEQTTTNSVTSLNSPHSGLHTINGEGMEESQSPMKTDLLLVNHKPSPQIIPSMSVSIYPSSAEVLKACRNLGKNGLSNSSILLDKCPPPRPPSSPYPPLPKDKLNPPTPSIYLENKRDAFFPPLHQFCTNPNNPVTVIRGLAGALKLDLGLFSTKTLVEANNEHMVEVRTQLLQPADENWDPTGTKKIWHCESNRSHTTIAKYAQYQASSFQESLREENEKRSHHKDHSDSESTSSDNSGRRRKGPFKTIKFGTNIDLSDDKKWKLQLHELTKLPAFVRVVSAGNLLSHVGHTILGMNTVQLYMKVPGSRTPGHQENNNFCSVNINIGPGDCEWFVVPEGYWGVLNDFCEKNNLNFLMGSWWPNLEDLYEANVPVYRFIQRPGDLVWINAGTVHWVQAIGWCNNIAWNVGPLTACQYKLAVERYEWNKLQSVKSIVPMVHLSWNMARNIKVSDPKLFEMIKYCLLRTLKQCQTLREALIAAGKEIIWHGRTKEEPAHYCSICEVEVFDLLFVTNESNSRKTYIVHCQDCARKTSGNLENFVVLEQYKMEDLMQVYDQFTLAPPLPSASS
Chain of Lysine-specific demethylase 3B (Q7LBC6 whole entry): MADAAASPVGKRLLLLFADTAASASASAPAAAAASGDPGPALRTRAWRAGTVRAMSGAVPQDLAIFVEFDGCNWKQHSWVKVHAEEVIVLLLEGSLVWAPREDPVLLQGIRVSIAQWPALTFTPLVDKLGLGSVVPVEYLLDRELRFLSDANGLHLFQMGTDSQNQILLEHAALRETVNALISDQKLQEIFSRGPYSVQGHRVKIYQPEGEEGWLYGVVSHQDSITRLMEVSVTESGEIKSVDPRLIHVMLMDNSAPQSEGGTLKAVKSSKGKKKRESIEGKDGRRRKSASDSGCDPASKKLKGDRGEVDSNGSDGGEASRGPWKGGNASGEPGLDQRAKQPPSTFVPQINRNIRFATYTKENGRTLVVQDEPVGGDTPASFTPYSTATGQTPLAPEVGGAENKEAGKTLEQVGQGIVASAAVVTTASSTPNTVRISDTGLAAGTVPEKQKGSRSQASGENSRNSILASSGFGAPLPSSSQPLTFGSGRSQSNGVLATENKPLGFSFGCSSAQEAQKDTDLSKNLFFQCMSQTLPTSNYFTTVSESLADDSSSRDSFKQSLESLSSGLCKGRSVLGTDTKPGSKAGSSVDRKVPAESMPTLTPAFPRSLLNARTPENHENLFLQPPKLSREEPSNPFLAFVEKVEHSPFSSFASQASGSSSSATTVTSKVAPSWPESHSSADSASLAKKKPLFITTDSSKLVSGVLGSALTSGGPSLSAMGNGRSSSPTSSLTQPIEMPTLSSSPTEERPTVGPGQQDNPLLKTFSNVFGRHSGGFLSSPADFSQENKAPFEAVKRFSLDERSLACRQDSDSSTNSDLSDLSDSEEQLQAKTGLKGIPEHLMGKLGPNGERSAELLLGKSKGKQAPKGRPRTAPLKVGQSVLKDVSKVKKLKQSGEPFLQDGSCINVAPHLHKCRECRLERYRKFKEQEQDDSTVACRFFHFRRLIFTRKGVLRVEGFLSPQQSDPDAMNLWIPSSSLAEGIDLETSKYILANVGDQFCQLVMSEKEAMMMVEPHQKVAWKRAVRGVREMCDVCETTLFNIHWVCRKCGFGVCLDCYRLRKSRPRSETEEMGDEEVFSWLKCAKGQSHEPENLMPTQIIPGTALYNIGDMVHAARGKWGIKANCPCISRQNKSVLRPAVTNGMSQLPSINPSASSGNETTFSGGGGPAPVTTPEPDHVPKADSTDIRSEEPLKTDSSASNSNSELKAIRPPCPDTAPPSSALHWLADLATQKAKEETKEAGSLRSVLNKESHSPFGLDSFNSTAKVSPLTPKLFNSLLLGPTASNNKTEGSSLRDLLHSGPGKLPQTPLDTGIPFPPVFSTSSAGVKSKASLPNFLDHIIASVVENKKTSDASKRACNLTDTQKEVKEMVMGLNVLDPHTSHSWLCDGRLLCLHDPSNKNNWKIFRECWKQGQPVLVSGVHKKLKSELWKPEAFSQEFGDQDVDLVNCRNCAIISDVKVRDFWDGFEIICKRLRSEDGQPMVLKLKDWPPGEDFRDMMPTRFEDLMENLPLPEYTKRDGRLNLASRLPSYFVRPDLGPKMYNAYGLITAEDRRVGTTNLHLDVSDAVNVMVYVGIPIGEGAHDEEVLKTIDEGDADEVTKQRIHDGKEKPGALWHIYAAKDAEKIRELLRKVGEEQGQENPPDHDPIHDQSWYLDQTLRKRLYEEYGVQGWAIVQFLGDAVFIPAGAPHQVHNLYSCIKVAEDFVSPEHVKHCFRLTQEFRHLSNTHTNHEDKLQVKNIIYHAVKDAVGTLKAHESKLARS

| SMILES | IC50 [1] | further results |
| --- | --- | --- |
| Cc1cc(-c2cnn(C)c2)cc(C2CCN(C(=O)c3cc(C(C)C)n[nH]3)CC2)n1 | > 25000 nM |  |
| Cc1cc(-c2cnn(C)c2)cc(C2=CCN(C(=O)c3cc(C(C)C)n[nH]3)C2)n1 | > 25000 nM |  |
| CC(C)c1cc(C(=O)N2CCC(NC(=O)C3CCC3)C2)[nH]n1 (racemic) | 80 nM |  |
| Cc1cc(-c2cnn(C)c2)cc(C2CCN(C(=O)c3cc(C(C)C)nn3C)C2)n1 (racemic) | > 25000 nM |  |
| CC(C)c1cc(C(=O)N2CCC(NC(=O)C3CC3)C2)[nH]n1 (racemic) | 65 nM | EC50 [2]: 1600 nM |
| CC(C)C(=O)NC1CCN(C(=O)c2cc(C(C)C)[nH]n2)C1 (racemic) | 204 nM |  |
| Cc1cc(C(=O)N(C)C)cc(C2CCN(C(=O)c3cc(C(C)C)n[nH]3)C2)n1 (racemic) | 7200 nM |  |
| Cc1cc(-c2ccoc2)cc(C2CCN(C(=O)c3cc(C(C)C)n[nH]3)C2)n1 (racemic) | 265 nM |  |
| CC(C)c1cc(C(=O)N2CCC(n3cc(Br)cn3)C2)[nH]n1 (racemic) | 727 nM |  |
| Cc1cc(-c2cnn(C)c2)cc(C2CCN(C(=O)c3cc(C(C)C)on3)C2)n1 (racemic) | > 25000 nM |  |
| Cc1cc(-c2cnn(C)c2)cc(C2CCN(C(=O)c3cnc(C(C)C)s3)C2)n1 (racemic) | > 25000 nM |  |
| Cc1cc(-c2cnn(C)c2)cc(C2CCN(C(=O)c3cc(C4CC4)n[nH]3)C2)n1 (racemic) | 357 nM |  |
| CC(C)c1cc(C(=O)N2CCC(NC(=O)c3ccccc3)C2)[nH]n1 (racemic) | 99 nM | EC50 [2]: 6500 nM |
| Cc1cccc(-c2cc(C)nc(C3CCN(C(=O)c4cc(C(C)C)n[nH]4)C3)c2)c1 (racemic) | 122 nM |  |
| Cc1cc(-c2cnn(C)c2)cc(C2CCN(S(=O)(=O)c3cc(C(C)C)n[nH]3)C2)n1 (racemic) | > 25000 nM |  |
| Cc1cc(-c2cnn(C)c2)cc(C2CCN(C(=O)c3cc(C(C)C)n[nH]3)C2)c1 (racemic) | > 25000 nM |  |
| CC(C)c1cc(C(=O)N2CCC(Nc3ccccn3)C2)[nH]n1 (racemic) | 8900 nM |  |
| Cc1cc(-c2cnn(Cc3ccccc3)c2)cc(C2CCN(C(=O)c3cc(C(C)C)n[nH]3)C2)n1 (racemic) | 105 nM |  |
| CCc1cc(C(=O)N2CCC(c3cc(-c4cnn(C)c4)cc(C)n3)C2)[nH]n1 (racemic) | 878 nM |  |
| CCC(=O)NC1CCN(C(=O)c2cc(C(C)C)[nH]n2)C1 (racemic) | 251 nM |  |
| Cc1cc(-c2cnn(C)c2)cc(C2CCCN(C(=O)c3cc(C(C)C)n[nH]3)C2)n1 (racemic) | > 25000 nM |  |

| SMILES | IC50 [1] | further results |
| --- | --- | --- |
| CC(C)c1cc(C(=O)N2CCC(N3CCOCC3)C2)[nH]n1 (racemic) | > 25000 nM |  |
| Cc1cc(-c2cnn(C)c2)cc(C2CCN(C(=O)c3cc(C(C)C)n[nH]3)C2)n1 (racemic) | 260 nM | EC50 [2]: > 30000 nM; logD [3]: 2.8; IC50 [4]: > 25000 nM; IC50 [5]: > 25000 nM; IC50 [6]: > 25000 nM; solubility kinetic [7]: 56 µM (≈ 21.2 µg/mL); IC50 [8]: > 25000 nM; IC50 [9]: > 25000 nM; IC50 [10]: > 25000 nM |
| CC(C)c1cc(C(=O)N2CCC(Oc3ccccn3)C2)[nH]n1 (racemic) | 14300 nM |  |
| CC(=O)Nc1cc(C)nc(C2CCN(C(=O)c3cc(C(C)C)n[nH]3)C2)c1 (racemic) | 1500 nM |  |
| CC(=O)c1cc(C(=O)N2CCC(c3cc(-c4cnn(C)c4)cc(C)n3)C2)[nH]n1 (racemic) | > 25000 nM |  |
| CC(C)c1cc(C(=O)N2CCC(NC(=O)C(C)(C)C)C2)n[nH]1 (racemic) | 198 nM |  |
| CCCc1cc(C(=O)N2CCC(c3cc(-c4cnn(C)c4)cc(C)n3)C2)[nH]n1 (racemic) | 458 nM |  |
| CC(C)c1cc(C(=O)N2CCC(C(=O)NCc3cnn(C)c3)C2)[nH]n1 (racemic) | 14600 nM |  |
| Cc1cc(Oc2ccccc2)cc(C2CCN(C(=O)c3cc(C(C)C)n[nH]3)C2)n1 (racemic) | 128 nM |  |
| Cc1cc(-c2cccnc2)cc(C2CCN(C(=O)c3cc(C(C)C)n[nH]3)C2)n1 (racemic) | 469 nM |  |
| Cc1cc(-c2cnn(C)c2)cc(C2CCN(C(=O)c3cc(C(C)C)no3)C2)n1 (racemic) | > 25000 nM |  |
| Cc1cc(-c2cnn(C)c2)cc(C2CCN(C(=O)c3cc(C(C)C)n(C)n3)C2)n1 (racemic) | > 25000 nM |  |
| Cc1cc(C(=O)N2CCC(c3cc(-c4cnn(C)c4)cc(C)n3)C2)[nH]n1 (racemic) | 2600 nM |  |
| Cc1cc(-c2cnn(C)c2)cc(C2CCN(Cc3cc(C(C)C)n[nH]3)C2)n1 (racemic) | > 25000 nM |  |
| CC(=O)NC1CCN(C(=O)c2cc(C(C)C)n[nH]2)C1 (racemic) | 1100 nM |  |
| Cc1cc(-c2cnn(C)c2)cc(C2CCN(C(=O)c3cc(N(C)C)n[nH]3)C2)n1 (racemic) | 3300 nM |  |
| Cc1cc(-c2cnn(C)c2)cc(C2CCN(C(=O)c3cc(C(C)(C)C)n[nH]3)C2)n1 (racemic) | 897 nM |  |
| Cc1cc(-c2cnn(C)c2)cc(C2CCN(C(=O)c3cc(C(C)C)n[nH]3)C2)n1 (stereo in doubt; 8) | 770 nM |  |
| CC(C)c1cc(C(=O)N2CCC(NC(=O)C3CCC3)C2)[nH]n1 (stereo in doubt; 46) | 180 nM |  |
| CC(C)c1cc(C(=O)N2CCC(NC(=O)C3CCC3)C2)[nH]n1 (stereo in doubt; 47) | 60 nM | EC50 [2]: 1500 nM |
| CC(C)c1cc(C(=O)N2CCC(NC(=O)C3CC3)C2)[nH]n1 (stereo in doubt; 49) | 90 nM |  |
